Experimental data: patent US20040014777A1, “Remedies for retinal nerve diseases containing 1,2-ethanediol derivatives or salts thereof” (Toyama Chemical Co., LTD., priority 2000, published 2004)

Experiments:
nerve growth factor = settings: WO96/12717; cited from earlier work
retinal ganglion cells [1] = experiment: Protective effect on retinal ganglion cells in a glaucoma model (India ink injection and angle photocoagulation); assay type: in vivo, Wistar white rats; settings: T-588 100 mg/kg orally
Text: 1. Protective Effect on Retinal Ganglion Cells in a Glaucoma Model
Wistar white rats [male, body weight 290-310 g] were subjected to a general anesthesia by intraperitoneal injection of ketamine hydrochloride and xylazine hydrochloride. Subsequently, the rats were subjected to an instillation anesthesia with oxybuprocaine hydrochloride. After the measuring both the intraocular pressures with a pneumatonometer (Model Classic 30:Mentor, Norwell, Mass., U.S.A.), the anterior chamber of the right eye was punctured with a 30-gage needle to aspirate the aqueous humor, and then about 30 μL of 35% India ink was injected thereinto. […]
Immediately after the coagulation, ophthalmoscopy was performed in all the animals in order to confirm the occlusion of retina central artery. Five days after the angle photocoagulation, the intraocular pressure was measured to confirm an elevation of the intraocular pressure in the right eye. […] From the fluorescent microscopic photographs, the number of labeled cell was counted by means of an image analyzer. The labeling rate of retinal ganglion cell was calculated as a ratio of the number of labeled ganglion cells in the right eye to the number of labeled ganglion cells in the control eye (left eye).
On the eighth day from the angle photocoagulation, the number of alive retinal ganglion cells was counted and compared with that of a normal eye. […]

retinal ganglion cells [2] = experiment: Protective effect on retinal ganglion cells in a retinal ischemia-reperfusion rat model; assay type: in vivo, SD rats; settings: fourteen days after retinal ischemia-reperfusion, n=8, control group 40%
Protocol: 2. Protective Effect on Retinal Ganglion Cells in a Retinal Ischemia-Reperfusion Rat Model
As a retinal ischemia-reperfusion model, the manner in Steven Roth et al. (Experimental Eye Research, Vol. 65, Pages 771-779, 1997) was used with partial modification.
As the test animals, SD rats (Japan SLC), 9 weeks old (body weight: about 300 g) were used. The operation was carried out under a halothane-anesthetized condition (introduction 5%, maintenance 2%). First, the animal was fixed on the table in a lateral decubitus, and the middle part of the skin between the external auditory canal and the external ocular angle was incised. After peeling off the temporal muscle from the cranium, the tissues surrounding the optic nerve were peeled off to expose the optic nerve. The retina central vessels were ligated together with the optic nerve with a 4-0 silk thread so as to avoid the damage of optic nerve. Thirty minutes after, the silk thread was released to reperfuse the blood flow. T-588 was orally administered 30 minutes before the ischemic treatment and just after the reperfusion. From the day next to the operation, T-588 was orally administered twice a day. […] The number of retinal ganglion cells was counted in the two region from the optic disk to 0.5 mm distant point and a ratio of the number of neurons in the ischemic eye to that in the normal eye was calculated on each individual. […]

[3] = system: neuron cell death caused by amyloid β-protein; settings: Society for Neuroscience Abstracts Vol. 24, 1998; cited from earlier work

In the case of `CCN(CC)CCOC[C@H](O)c1ccc2sccc2c1.Cl` [T-588, (R)-1-(benzo[b]thiophen-5-yl)-2-[2-(N,N-diethylamino)ethoxy]ethanol hydrochloride], the “effect on nerve growth factor activity” value (nerve growth factor) is given as “nerve growth factor activity-improving effect”, the “survival rate of retinal ganglion cells (tested eye compared with normal eye)” value (retinal ganglion cells [1]; eighth day from angle photocoagulation, n=9, control group 78%) is given as 91% and the “influence on the elevation of intraocular pressure” value (retinal ganglion cells [1]; glaucoma model rats) is given as “no influence”. For the same compound, the “survival rate of retinal ganglion cells (tested eye compared with normal eye)” value (retinal ganglion cells [2]; T-588 10 mg/kg orally twice a day) was 57%, the “survival rate of retinal ganglion cells (tested eye compared with normal eye)” value (retinal ganglion cells [2]; T-588 30 mg/kg orally twice a day) was 70% and the “effect against neuron cell death caused by amyloid β-protein” value [3] was “protective effects”.
